The results in this text go back to patent US20240025907A1, “QUINAZOLINE PAN-KRas INHIBITORS” (Mirati Therapeutics, Inc., priority 2022, published 2024).

Experiment [1] has as its system KRas-mediated Phosphorylation of ERK in HCT116 cells. Description: Cisbio HTRF pERK assay, HCT116 cells. The following applies: Homo sapiens, HCT-116, 3 h, HCT116 cells, 3 hrs compound; read-out: Inhibition (HTRF IC50 nM) of KRas-mediated Phosphorylation of ERK, HCT116. Type of experiment: cell-based.
In experiment [2] the test system is KRas-mediated Phosphorylation of ERK in H460 cells. Description: Cisbio HTRF pERK assay, H460 cells. Type of experiment: cell-based. The following applies: Homo sapiens, NCI-H460, 3 h, H460 cells, 3 hrs compound; read-out: Inhibition (HTRF IC50 nM) of KRas-mediated Phosphorylation of ERK, H460.
In another experiment the target is T1, KRas^G12D (Homo sapiens, UniProt P01116, G12D).
T1 construct: Biotinylated KRas (corresponding to amino acids 1-169, produced at Accelegan Inc.); biotin (biotinylated); purchased Accelegan Inc
Description: KRas TR-FRET tracer displacement binding assay, G12D. The conditions noted are these: 60-minute incubation. The gist of the method: (§1)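 TR-FRET displacement: biotinylated KRas (aa 1-169) incubated with Cy5-labelled tracer, terbium streptavidin and compound (1% DMSO final) in 50 mM HEPES pH 7.5, 5 mM MgCl2, 0.005% Tween-20, 1 mM DTT. Read after 60-minute room-temperature incubation.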

For another experiment, the target named is T2, KRas^G12R (Homo sapiens, UniProt P01116, G12R).
T2 construct: Biotinylated KRas (corresponding to amino acids 1-169, produced at Accelegan Inc.); biotin (biotinylated); purchased Accelegan Inc
Description: KRas TR-FRET tracer displacement binding assay, G12R. The following applies: 60-minute incubation. As for the experimental part: This Example illustrates that exemplary compounds of the present invention bind to KRas and are capable of displacing a labeled tracer ligand occupying the KRas binding site. KRas^WT, KRas^G12A, KRas^G12C, KRas^G12D, KRas^G12R, KRas^G12S, KRas^G12V, KRas^G13D, or KRas^Q61H was used in the assay.
The ability of a compound to bind to KRas was measured using a TR-FRET displacement assay. Biotinylated KRas (corresponding to amino acids 1-169, produced at Accelegan Inc.) was incubated with custom made Cy5 labelled tracer, terbium streptavidin (Cisbio Inc.) and compound (1% DMSO final) in buffer (50 mM HEPES, pH 7.5, 5 mM MgCl2, 0.005% Tween-20 and 1 mM DTT). After a 60-minute incubation at room temperature, the reaction was measured using a BMG LABTECH CLARIO star Plus via TR-FRET. […] The POC values were fit to a 4-parameter IC50 equation and the IC50 value reported in Table 1 (selected Examples 172-222).

The test system of experiment [3] is KRas-mediated Phosphorylation of ERK in A549 cells. Description: Cisbio HTRF pERK assay, A549 cells. Type of experiment: cell-based. The conditions noted are these: Homo sapiens, A549, 3 h, A549 cells, 3 hrs compound; read-out: Inhibition (HTRF IC50 nM) of KRas-mediated Phosphorylation of ERK, A549.
For experiment [4], the system named is KRas-mediated Phosphorylation of ERK in H358 cells. Description: Cisbio HTRF pERK assay, H358 cells. Type of experiment: cell-based. The following applies: Homo sapiens, NCI-H358, 3 h, H358 cells, 3 hrs compound; read-out: Inhibition (HTRF IC50 nM) of KRas-mediated Phosphorylation of ERK, H358.
In a further experiment the target is T3, KRas^G12V (Homo sapiens, UniProt P01116, G12V).
T3 construct: Biotinylated KRas (corresponding to amino acids 1-169, produced at Accelegan Inc.); biotin (biotinylated); purchased Accelegan Inc
Put plainly: KRas TR-FRET tracer displacement binding assay, G12V. The conditions noted are these: 60-minute incubation. The method in brief: as §1

For experiment [5], the system named is KRas-mediated Phosphorylation of ERK in H727 cells. Description: Cisbio HTRF pERK assay, H727 cells. Type of experiment: cell-based. The following applies: Homo sapiens, NCI-H727, 3 h, 3 hrs compound, read-out: Inhibition (HTRF IC50 nM) of KRas-mediated Phosphorylation of ERK, H727.
For experiment [6], the system named is KRas-mediated Phosphorylation of ERK in AsPC-1 cells. Put plainly: Cisbio HTRF pERK assay, AsPC-1 cells. Type of experiment: cell-based. The conditions noted are these: Homo sapiens, ASPC1, 3 h, 3 hrs compound, read-out: Inhibition (HTRF IC50 nM) of KRas-mediated Phosphorylation of ERK, AsPC-1.

T2 sequence (P01116 1-169 isoform P01116-2 G12R): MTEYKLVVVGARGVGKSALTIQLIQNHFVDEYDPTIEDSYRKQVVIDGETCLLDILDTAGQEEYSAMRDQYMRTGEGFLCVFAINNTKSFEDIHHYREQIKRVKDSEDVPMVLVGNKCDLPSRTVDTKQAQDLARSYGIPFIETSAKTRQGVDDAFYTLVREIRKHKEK
T3 sequence (P01116 1-169 isoform P01116-2 G12V): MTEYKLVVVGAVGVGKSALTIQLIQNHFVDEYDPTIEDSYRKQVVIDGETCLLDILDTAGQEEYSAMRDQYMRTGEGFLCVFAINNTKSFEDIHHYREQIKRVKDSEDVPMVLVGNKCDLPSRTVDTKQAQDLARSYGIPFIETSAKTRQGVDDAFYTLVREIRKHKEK
T1 sequence (P01116 1-169 isoform P01116-2 G12D): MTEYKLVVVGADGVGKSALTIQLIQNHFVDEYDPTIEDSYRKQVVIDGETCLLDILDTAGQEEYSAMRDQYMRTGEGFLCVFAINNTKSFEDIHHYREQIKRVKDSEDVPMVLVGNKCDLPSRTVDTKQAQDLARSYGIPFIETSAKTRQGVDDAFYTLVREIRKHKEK

Turning to `CCc1c(F)ccc2cc(O)cc(-c3c(F)cc4c(N5CC(c6ccncc6)C5)nc(OC[C@@]56CCCN5C[C@H](F)C6)nc4c3F)c12` [Example 175, 4-(6,8-difluoro-2-(((2R,7aS)-2-fluorotetrahydro-1H-pyrrolizin-7a(5H)-yl)methoxy)-4-(3-(pyridin-4-yl)azetidin-1-yl)quinazolin-7-yl)-5-ethyl-6-fluoronaphthalen-2-ol], the IC50 in experiment [1] worked out at 1640 nM; in experiment [2], 445 nM; on KRas^G12D, 313 nM; at KRas^G12R it was 16 nM; in experiment [3] it was 490 nM; in [4], 185 nM. Besides, the IC50 on KRas^G12V worked out at 12 nM; in experiment [5], 422 nM; in experiment [6], 1280 nM.
